Where two headings read alike, the source gives them in different places.
Key:
DU-145 = assay: Prostate cancer cell cytotoxicity, crystal violet assay, DU-145; format: cell-based, human; details: Homo sapiens
Method: (§1) Toxicity to the three prostate cancer cell lines, LNCaP, DU-145, and PC-3 were measured in two different media, RPMI-1640 and DMEM (Dulbecco's Modified Eagle Medium), both supplemented with 10% fetal bovine serum.
(§2) Cell lines were maintained in vitro in RPMI 1640 media or DMEM, each supplemented with 10% fetal bovine serum, 2 mM L-glutamine, 10 mM HEPES buffer, penicillin (100 units/mL) and streptomycin (100 μg/mL).
(§3) Cells were dissociated with trypsin/EDTA, counted, and suspended in growth media (RPMI or DMEM) to a concentration of 5.6×10^3 cells/mL. Cell suspensions were dispensed in 180 μL aliquots into 96-well tissue culture plates. […] Each 100× solution was diluted 10× in growth media (RPMI or DMEM), and a 20 μL aliquot of the resulting 10× solution was immediately (<10s) added to-the appropriate lane. Additionally, one lane was treated with 20 μL of 10% DMSO in growth media (no drug) and one lane was treated with 200 μL of 1.5 M Tris buffer (no cells). The cells were incubated with the drugs for 3 h at 37° C. The drug solutions were then removed and replaced with 200 μL of fresh media. The cells were incubated for 4 days (7 days for PC-3 cells in DMEM) at 37° C. in a humidified atmosphere of 5% CO2 and 95% air. Cell survival was determined using a crystal violet assay as described earlier (Fenick, D. J. et al (1997) J. Med. Chem. 40: 2452-2461).

LNCaP = assay: Prostate cancer cell cytotoxicity, crystal violet assay, LNCaP; format: cell-based, human; details: Homo sapiens, LNCaP
Method: as §1, §2, §3

MCF-7 cells = assay: In vitro cytotoxicity, colony formation by crystal violet assay, MCF-7
Method: (§4) The term IC50 as used herein refers to the concentration of drug which inhibits cell growth by 50%, i.e., 50% of cells are viable at the IC50 concentration relative to a no-drug control.
(§5) Cells were incubated with drug for 3 h in RPMI (Roswell Park Memorial Institute) 1640 media containing 10% fetal bovine serum and 1% DMSO. Plates, were developed using the crystal violet assay. […] In all cases percent survival was determined by the extent of colony formation six days after drug treatment.
(§6) All tissue culture materials were obtained from Gibco Life Technologies (Grand Island, N.Y.) unless otherwise stated. MCF-7 breast cancer cells were obtained from American Type Culture Collection (Rockville, Md.). […] Both cell lines were maintained in vitro by serial culture in phenol red-free RPMI Media 1640 supplemented with 10% fetal bovine serum (Gemini Bio-Products, Calbasas, Calif.), L-glutamine (2 mM), HEPES buffer (10 mM), penicillin (100 units/mL), and streptomycin (100 μg/mL). […] Cells were maintained at 37° C. in a humidified atmosphere of 5% CO2 and 95% air.
(§7) Cells were dissociated with trypsin-EDTA, counted, and suspended in growth media to a concentration of 5×10^3 cells/mL. Cell suspensions were dispensed in 200 μL aliquots into 96-well tissue culture plates. Plates were then incubated for 24 h at 37° C. in a humidified atmosphere of 5% CO2 and 95% air. The media was replaced with 180 μL of growth media prior to addition of the cytotoxic agents.
(§8) Concentrations were then corrected by measuring the solution absorbance at 480 nm (ε=11,500/mole anthracycline). The solutions were then serially diluted in DMSO to give a series of 100× working concentration solutions. For each concentration, the 100× solution was diluted 1:10 in serum-free RPMI Media 1640. 20 μL of the resulting […] solution was immediately added to the appropriate lane. Additionally, one lane was treated with 20 μL of 10% DMSO in serum-free RPMI (no drug) and one lane replaced with 200 μL of 1.5 M Tris buffer (no cells). The cells were incubated at 37° C. for 3 h. The drug solutions were removed and 200 μL of fresh growth media was added to each well.
(§9) The extent of colony formation was determined by use of a crystal violet staining assay (Gilles, R. J. et al. (1986), “Determination of cell number in monolayer cultures,” Anal. Biochem. 159:109-113; Reile, H. et al. (1990), “Computerized determination of growth kinetic curves and doubling times from cells in microcultures,” Anal. Biochem. 187:262-267). […] The cells were then stained with 75 μL of 0.1% crystal violet in deionized water for 30 min. […] The plates were blotted dry and 200 μL of 70% ethanol in water was added to each well to solublize the dye. The plates were stored at 4° C. until solubilization was complete (about 4 h). The optical density of each well was measured on an ELISA plate reader at 588 nm. Relative colony sizes were determined by comparison of the drug treated lanes to the control lanes.
(§10) MCF-7 breast cancer cells were obtained from American Type Culture Collection (Rockville, Md.). MCF-7/ADR adriamycin resistant breast cancer cells were a gift of Dr. William W. Wells (Michigan State University). Both cell lines were maintained in vitro by serial culture in phenol red-free RPMI Media 1640 supplemented with 10% fetal bovine serum (Gemini Bio-Products, Calbasas, Calif.), L-glutamine (2 mM), HEPES buffer ([…]), penicillin (100 units/mL), and streptomycin (100 μg/mL). […] Cells were maintained at 37° C. in a humidified atmosphere of 5% CO2 and 95% air.
1640 media containing 10% fetal bovine serum. The resulting 90% media/10% DMSO solutions (v/v) were incubated at 37° C. for 6h.

MCF-7/ADR cells = assay: In vitro cytotoxicity, colony formation by crystal violet assay, MCF-7/ADR
Method: as §4, §5, §6, §7, §8, §9, §10
These were then diluted 10× with autoclaved Millipore water.

PC-3 = assay: Prostate cancer cell cytotoxicity, crystal violet assay, PC-3; format: cell-based, human; details: Homo sapiens
Method: as §1, §2, §3

[1] = Hydrolysis in aqueous phosphate buffer, HPLC; format: physicochemical; details: serum; read-out: estimated half-life
Method: See Example 16. […] The DMSO was present to increase solubility.
Second, the kinetics of hydrolysis were measured in pH 6.0 phosphate buffer.
A 960 μL solution of pH 7.3 phosphate buffer was heated to 37° C. […] No change in the chromatography was observed if pH, 7.3 phosphate buffer was used as the eluent in place of pH 7.4 TEAA buffer.

[2] = Stability in DMSO and DMSO/water, NMR or HPLC; format: physicochemical; details: HPLC
Method: Crystalline dimeric formaldehyde conjugate of daunorubicin (2.8 mg, 2.6 μmol) was dissolved in 500 μL of DMSO-d6 (stored over 3 A molecular sieves) and analyzed by 400 MHz, ^1H NMR. […] Upon addition of 25 μL of D2O to the 500 μL DMSO-d6 sample, the dimeric formaldehyde conjugate of daunorubicin reacted over a 24 h period to form an equilibrium mixture consisting of 67% dimeric formaldehyde conjugate of daunorubicin and 32% of an intermediate. Because of the complexity of the spectrum, a structure could not be assigned to the intermediate; however, the intermediate appeared to have an oxazolidine ring. Upon addition of 3 equiv of hydrochloric acid in 130 μL of deuterium oxide, hydrolysis to daunorubicin-HCl was complete. The hydrochloric acid solution was prepared by the addition of 10 μL of concentrated HCl to 990 μL of D2O. The formaldehyde released from the dimeric formaldehyde conjugate of daunorubicin was detected as its hydrate. The final product was identified as daunorubicin by comparison of the NMR spectrum with that of a sample of daunorubicin plus 3 equiv of HCl. Further, the final product was isolated by removal of all volatile components under vacuum (0.1 Torr), and its ^1H NMR spectrum was identical to that of daunorubicin-HCl.
Amorphous dimeric formaldehyde conjugate of daunorubicin, when worked up in methylene chloride, was stable in DMSO for at least 4 days. It hydrolyzed with added D2O and hydrochloric acid in a manner similar to that of the crystalline material. When worked up in chloroform, amorphous dimeric formaldehyde conjugate of daunorubicin had less stability in DMSO, presumably due to traces of HCl from the chloroform.
A 1.3 mg sample of N-acetyl-3′-N,4′-O-methylenedaunorubicin was dissolved in […] of DMSO and analyzed over time by HPLC. […] At this time, […] of water was added to the DMSO/N-acetyl monomeric formaldehyde conjugate of daunorubicin solution, establishing a 50:50 DMSO:water mixture (v/v). In this solution, the N-acetyl-3′-N,4′-O-methylenedaunorubicin remained 91% intact (9% degradation to daunorubicin) over a period of 6 days, based upon the HPLC analysis.
A pH 6 triethyl ammonium acetate solution containing 13.1 μmol of epidoxorubicin-HCl and 6.6 mmol of […] was allowed to react in the dark at 25° C. for 30 min. The mixture was then extracted with chloroform with vigorous stirring for 20 min. The chloroform solution was dried over sodium sulfate and the chloroform removed by rotary evaporation. The resulting dry solid was redissolved in 1.0 mL of chloroform. To this was added 10 mL of n-hexane. After 2 days, a large amount of precipitate had formed, which was washed with 3×5 mL of n-hexane, followed by 4×1 mL of water.
The sample was maintained at ambient temperature for 2 h; after this period no change in the spectrum was observed. […] A stock 122 mM solution of HCl in D2O was prepared by adding concentrated hydrochloric acid to D2O. […] Complete hydrolysis occurred upon addition of ca. 2-3 equiv of HCl. A similar experiment was performed using HCl in H2O. […] This solution was incubated at 37° C. for 24 h prior to NMR analysis.

[3] = relative to the respective parent drug
[4] = 50:50 DMSO:water (v/v), over 6 days

Compound | IC50 (DU-145; DU-145, read-out: IC50 Values, DU-145/DMEM) | IC50 (DU-145; DU-145, read-out: IC50 Values, DU-145/RPMI-1640) | IC50 (LNCaP; read-out: IC50 Values, LNCaP/DMEM) | IC50 (LNCaP; read-out: IC50 Values, LNCaP/RPMI-1640) | IC50 (MCF-7 cells; Homo sapiens, MCF7, read-out: IC50 Values, MCF-7) | times more cytotoxic against the MCF-7 cell line than the parent drug (MCF-7 cells; relative to daunorubicin and doxorubicin, respectively) | fold more toxic to MCF-7 cells than the parent drug (MCF-7 cells; [3]) | IC50 (MCF-7/ADR cells; Homo sapiens, NCI/ADR-RES, read-out: IC50 Values, MCF-7-ADR) | fold higher cytotoxicity against MCF-7/ADR cells relative to the parent drug (MCF-7/ADR cells; [3]) | IC50 (PC-3; PC-3, read-out: IC50 Values, PC-3/DMEM) | IC50 (PC-3; PC-3, read-out: IC50 Values, PC-3/RPMI-1640) | half-life [1] | degradation to daunorubicin [2, 4] | fraction remaining intact [2, 4] | degradation in DMSO solution ([2]; DMSO, after 2 h)
COc1cccc2c1C(=O)c1c(O)c3c(c(O)c1C2=O)CC(O)(C(=O)CO)CC3OC1CC2C(OCN2CN2CO[C@@H]3C(C)O[C@H](OC4CC(O)(C(=O)CO)Cc5c(O)c6c(c(O)c54)C(=O)c4c(OC)cccc4C6=O)CC32)C(C)O1 (stereo partly drawn) [DOXF, bis(3′-N-(3′-N,4′-O-methylenedoxorubicinyl))methane] | 1.5 nM | 2 nM | 0.5 nM | 0.5 nM | 1 nM | 150 times | 150 fold | 0.5 nM | 10,000 fold | 4.5 nM | 0.5 nM | < 10 min |  |  | 
N-acetyl-3′-N,4′-O-methylenedaunorubicin |  |  |  |  |  |  |  |  |  |  |  |  | 9% | 91% | no degradation

Source: patent publication US6677309B1, “Anti-cancer drug aldehyde conjugate drugs with enhanced cytotoxicity compounds, compositions and methods” (University Technology Corporation, priority 1997, dated 2004)
